According to PMC8470770, “Characterization of a Primate Blood-Brain Barrier Co-Culture Model Prepared from Primary Brain Endothelial Cells, Pericytes and Astrocytes” (Pharmaceutics, 2021):
Like-named read-outs stand apart in the source and are kept apart here. One block for each compound: values may come before it.

Assays:
[1] = tested on: primary triple co-culture monkey BBB model; settings: cited from earlier work
[2] = tested on: rat BBB co-culture model (EPA); design: method as in PMID 22906709; settings: cited from earlier work; for Rat BBB Papp A-B: apical to basal; for Rat BBB Papp B-A: basal to apical
[3] = design: method as in PMID 22906709; settings: cited from earlier work
in vitro = settings: cynomolgus monkey (Macaca fascicularis)
Method: To prepare the in vitro co-culture models (EPA), pericytes (2 × 10^4 cells/cm^2) were cultured on the bottom sides of collagen-coated culture inserts (Transwell clear, polyester membrane, 0.4 μm pore size, Corning Costar, NY, USA), and astrocytes (0.5 × 10^5 cell/cm^2) were seeded on the collagen-coated well of a 24-well culture plate. Cells were let to adhere overnight, and endothelial cells (2 × 10^5 cells/cm^2) were seeded on the inside of the inserts (top side of the membranes) and placed in the wells of the 24-well culture plates. An endothelial cell monolayer model (E00) was constructed by a similar method as the co-culture model, except for the procedure of seeding of pericytes and astrocytes. BBB models were maintained in RBEC medium supplemented with 550 nM hydrocortisone.
The permeability of the same 10 drugs was measured in the apical-to-basolateral (A-B) and basolateral-to-apical (B-A) directions as described in our previous study. All test compounds were dissolved in DMSO to yield a 10 mM solution, which was further diluted to 10 μM in HBSS-Hepes buffer (Hank’s Buffered Salt Solution containing 25 mM Hepes). […] The concentration of test compounds in the samples was determined by a Merck–Hitachi LaChrom HPLC with UV–VIS or a fluorescence detector (Merck, Darmstadt, Germany). […] Apparent permeability coefficients (Papp) were calculated using the following equation: Papp = (dQ/dT)/(A × C0), where dQ/dT is the cumulative amount in the receiver compartment versus time, A is the surface of the filter, and C0 is the initial concentration of the tracer in the luminal compartments.

[4] = Sodium fluorescein permeability (Pe) of monkey BBB mono- and co-culture models; assay type: in vitro ADME; settings: cynomolgus monkey (Macaca fascicularis), 10 μg/mL Na-F, read-out: endothelial permeability coefficient for sodium fluorescein (Na-F Pe)
Method: (§1) To evaluate the barrier function in different BBB models, transendothelial electrical resistance (TEER) was measured by an EVOM resistance meter and Endohm chamber (World Precision Instruments, Sarasota, FL, USA). The resistance values of blank inserts (background resistance) were subtracted from values of inserts with cells. TEER data are shown as Ω × cm^2. The permeability of sodium fluorescein (Na-F, MW: 376 Da) was also determined, and used as an index of paracellular transport. Cell culture inserts were transferred to 24-well plates containing 0.9 mL assay buffer (Dulbecco’s PBS (D-PBS) containing 0.9 mM CaCl2, 0.5 mM MgCl2, 4.5 g/L glucose, and 10 mM HEPES; pH 7.4). The luminal culture medium was replaced with 0.2 mL of assay buffer containing 10 μg/mL Na-F. Fifteen or 45 min after Na-F addition, the inserts were transferred to new wells containing the assay buffer. […] Transendothelial permeability coefficient (Pe) was calculated as previously described.

[5] = tested on: P-glycoprotein (P-gp, ABCB1); assay: Bidirectional transport of rhodamine 123 across MBECs; settings: 5 μM R123, 1 h, 37 °C; MBEC
Method: For bidirectional transport assay, the flux of 5 μM R123 in assay buffer was measured for 1 h at 37 °C in the luminal-to-abluminal and in the opposite abluminal-to-luminal directions. After measuring the R123 content in samples collected from both compartments, Pe values were calculated.

SLC35F2 = tested on: SLC35F2; design: method as in PMID 33144341; settings: monkey BBB kit; famotidine as inhibitor; cited from earlier work
[6] = tested on: monkey co-culture BBB model (EPA); assay: Effect of TGF-β1 on barrier integrity (TEER) in monkey co-culture BBB model (EPA); assay type: cell-based, Macaca fascicularis; settings: TGF-β1 1 ng/mL, 3, 6, and 12-h time points
Method: as §1

[7] = tested on: receptors for advanced glycation end-product (RAGE); settings: cited from earlier work

Compound: Cn1c(=O)c2c(ncn2C)n(C)c1=O [Caffeine]
mean Papp across the monkey BBB model [1]: 71.7 ± 3.2 × 10^−6 cm/s | Rat BBB Papp A-B [2]: 64.95 ×10⁻⁶ cm/s | Rat BBB Papp B-A [2]: 59.91 ×10⁻⁶ cm/s | Mouse In Vivo Papp [3]: 11.11 ×10⁻⁶ cm/s | Papp A→B at 10 μM (in vitro): 60.5 ×10⁻⁶ cm/s | Papp B→A at 10 μM (in vitro): 65.2 ×10⁻⁶ cm/s

Papp A→B at 10 μM (in vitro): 3 ×10⁻⁶ cm/s | Papp B→A at 10 μM (in vitro): 2.88 ×10⁻⁶ cm/s | efflux ratio at 10 μM (in vitro): 0.97
Compound: CN/C(=N/CCSCc1nc[nH]c1C)NC#N [Cimetidine]
Rat BBB Papp A-B [2]: 3.86 ×10⁻⁶ cm/s | Rat BBB Papp B-A [2]: 2.8 ×10⁻⁶ cm/s | Rat BBB Efflux Ratio [2]: 0.75 | Mouse In Vivo Papp [3]: 0.2 ×10⁻⁶ cm/s

Compound: C[C@H]1O[C@@H](O[C@H]2[C@@H](O)C[C@H](O[C@H]3[C@@H](O)C[C@H](O[C@H]4CC[C@@]5(C)[C@H](CC[C@@H]6[C@@H]5C[C@@H](O)[C@]5(C)[C@@H](C7=CC(=O)OC7)CC[C@]65O)C4)O[C@@H]3C)O[C@@H]2C)C[C@H](O)[C@@H]1O [Digoxin]
Mouse In Vivo Papp [3]: 0.1 ×10⁻⁶ cm/s

Papp A→B at 10 μM (in vitro): 32.7 ×10⁻⁶ cm/s | Papp B→A at 10 μM (in vitro): 39.1 ×10⁻⁶ cm/s | efflux ratio at 10 μM (in vitro): 1.2
Compound: COc1ccc2c(c1)c(CC(=O)O)c(C)n2C(=O)c1ccc(Cl)cc1 [Indomethacin]
Rat BBB Papp A-B [2]: 33.63 ×10⁻⁶ cm/s | Rat BBB Papp B-A [2]: 44.07 ×10⁻⁶ cm/s | Rat BBB Efflux Ratio [2]: 1.31 | Mouse In Vivo Papp [3]: 0.13 ×10⁻⁶ cm/s

Compound: CN(C)C(=O)C(CCN1CCC(O)(c2ccc(Cl)cc2)CC1)(c1ccccc1)c1ccccc1 [Loperamide]
Rat BBB Papp A-B [2]: 15.57 ×10⁻⁶ cm/s | Rat BBB Papp B-A [2]: 21.76 ×10⁻⁶ cm/s | Mouse In Vivo Papp [3]: 1.05 ×10⁻⁶ cm/s

Papp at 10 μg/mL ([4]; pH 7.4, MBEC co-culture with rat pericytes (EP0)): 0.74 ± 0.06 ×10⁻⁶ cm/s | Papp at 10 μg/mL ([4]; pH 7.4, MBEC co-culture with rat pericytes and astrocytes (EPA)): 0.69 ± 0.07 ×10⁻⁶ cm/s | Papp at 10 μg/mL ([4]; pH 7.4, monolayer MBEC model (E00)): 2.44 ± 0.04 ×10⁻⁶ cm/s
Compound: O=C1OC2(c3ccc(O)cc3Oc3cc(O)ccc32)c2ccccc21 [Na-F, sodium fluorescein]

Compound: C=C[C@H]1C[N@@]2CC[C@H]1C[C@@H]2[C@@H](O)c1ccnc2ccc(OC)cc12 [Quinidine]
Rat BBB Papp A-B [2]: 6.28 ×10⁻⁶ cm/s | Rat BBB Papp B-A [2]: 12.11 ×10⁻⁶ cm/s | Mouse In Vivo Papp [3]: 1.69 ×10⁻⁶ cm/s

transport of R123 from brain side to blood side (B-A) versus opposite direction (A-B) [5]: almost four-fold higher
Compound: COC(=O)c1ccccc1-c1c2ccc(=N)cc-2oc2cc(N)ccc12 [R123, rhodamine 123]

Papp A→B at 10 μM (in vitro): 1.47 ×10⁻⁶ cm/s | Papp B→A at 10 μM (in vitro): 2.14 ×10⁻⁶ cm/s | efflux ratio at 10 μM (in vitro): 1.46
Compound: CC[C@]1(O)C[C@@H]2CN(CCc3c([nH]c4ccccc34)[C@@](C(=O)OC)(c3cc4c(cc3OC)N(C)[C@H]3[C@@](O)(C(=O)OC)[C@H](OC(C)=O)[C@]5(CC)C=CCN6CC[C@]43[C@@H]65)C2)C1 [Vinblastine]
Rat BBB Papp A-B [2]: 2.42 ×10⁻⁶ cm/s | Rat BBB Papp B-A [2]: 1.39 ×10⁻⁶ cm/s | Rat BBB Efflux Ratio [2]: 0.69 | Mouse In Vivo Papp [3]: 1.43 ×10⁻⁶ cm/s

Compound: COCCn1c2c([n+](Cc3cnccn3)c1C)C(=O)c1ccccc1C2=O [YM155, sepantronium bromide]
BBB permeability and intraendothelial accumulation (SLC35F2 substrate transport) (SLC35F2): famotidine-inhibitable BBB permeability and intraendothelial accumulation

Compound: O=C1Nc2ccc(Cl)cc2[C@@](C#CC2CC2)(C(F)(F)F)O1 [efavirenz]
mean Papp across the monkey BBB model [1]: 1.44e-05 cm/s

Compound: COc1cc2c(cc1Cc1cccc(Cl)c1F)c(=O)c(C(=O)O)cn2[C@H](CO)C(C)C [elvitegravir]
mean Papp across the monkey BBB model [1]: 1.86e-05 cm/s

Compound: O=c1c(O)c(-c2cc(O)c(O)c(O)c2)oc2cc(O)cc(O)c12 [myricetin]
Papp in the monkey BBB model [1]: 2.5 ×10⁻⁶ cm/s

Compound: Cc1ccnc2c1NC(=O)c1cccnc1N2C1CC1 [nevirapine]
mean Papp across the monkey BBB model [1]: 3.2e-05 cm/s

Compound: Cc1nnc(C(=O)NC(C)(C)c2nc(C(=O)NCc3ccc(F)cc3)c(O)c(=O)n2C)o1 [raltegravir]
mean Papp across the monkey BBB model [1]: 1.02e-05 cm/s

Compound: TGF-β1: cytokine transforming growth factor β1
decrease in TEER values compared to medium treated group [6]: ~ 30%

Compound: oxytocin
reduction of blood-to-brain direction transport when RAGE was silenced by shRNA [7]: approximately 70%
